The values below come from patent publication US11098073B2, “Triphenylphosphonium-tethered tetracyclines for use in treating cancer” (Oxford University Innovation Limited, priority 2017, dated 2021).

Counter-ions that a name gives are not always drawn.

This test concerns MDA-231 cancer cells. The experiment in a line: Inhibition of proliferation assay: cell confluence (IncuCyte live cell imaging). It counts as cell-based. The note with it: images every 3 h over 4-5 d, relative confluence normalised to time zero. The text has this:
Inhibition of Proliferation Assay
The confluence value is a surrogate for cell proliferation and growth. The value is expressed as a percent confluence, which represents the fraction of culture dish-surface that is occupied by cells. As the number of cells in the dish increases over time due to proliferation, so will their coverage of that surface increase. Expansion of the cell population on the cell culture-dish surface and confluence have mostly a linear relationship until the cells on the plate surface begin to reach saturation or maximum density.
Confluence is determined based on image analysis. Image based software can identify objects in the image field base on changes to pixel density in a grey scale image. The software can then assign a mask to those pixels within the object. Objects can be ‘gated’ out based on size and shape. To determine cell confluence, images of cells are first masked as objects. The surface area of the image that is masked is measured and compared to the total surface area of the culture dish surface to obtain a percent confluence.
MDA-231 cancer cells were obtained from ATCC. Cells were cultured in Dulbecco's Modified Eagle Medium (DMEM) supplemented with 10% Fetal Bovine Serum (FBS), 2 mM Glutamax, 1 mM Non Essential Amino Acid (NEAA) solution and 1 mM sodium pyruvate. […] Final DMSO concentrations were […]. Images were acquired with an IncuCyte Live Cell Imaging microscopy (Essen Bioscience) at every 3 h under cell culture conditions with 10 OX objective over 4-5 d. Cell confluence was calculated from one field of view per well using the IncuCyte in-built algorithm. Relative confluence values were obtained by normalising each value to the time zero value in each sample.

As for `C[C@H]1c2ccc(NC(=O)CNC(=O)CCCCC[P+](c3ccccc3)(c3ccccc3)c3ccccc3)c(O)c2C(=O)C2=C(O)[C@]3(O)C(=O)C(C(N)=O)=C(O)[C@@H](N(C)C)[C@@H]3[C@@H](O)[C@@H]21` [Example 8, {5-[({[(5R,5aR,6S,6aR,7S,10aS)-9-carbamoyl-7-(dimethylamino)-1,6,8,10a,11-pentahydroxy-5-methyl-10,12-dioxo-5,5a,6,6a,7,10,10a,12-octahydrotetracen-2-yl]carbamoyl}methyl)carbamoyl]pentyl}triphenylphosphonium trifluoroacetate], the “% Confluence” value (compound tested at 10 μM) was determined as 96.2%.

`C[C@H]1c2ccc(NC(=O)CNC(=O)CCCCCCC[PH](c3ccccc3)(c3ccccc3)c3ccccc3)c(O)c2C(=O)C2=C(O)[C@]3(O)C(=O)C(C(N)=O)=C(O)[C@@H](N(C)C)[C@@H]3[C@@H](O)[C@@H]21` [Example 3, {7-[({[(5R,5aR,6S,6aR,7S,10aS)-9-carbamoyl-7-(dimethylamino)-1,6,8,10a,11-pentahydroxy-5-methyl-10,12-dioxo-5,5a,6,6a,7,10,10a,12-octahydrotetracen-2-yl]carbamoyl}methyl)carbamoyl]heptyl}triphenylphosphonium trifluoroacetate]: the “% Confluence” value (compound tested at 10 μM) is on record as 99.9%.

For the compound `C[C@H]1c2cccc(O)c2C(=O)C2=C(O)[C@]3(O)C(=O)C(C(N)=O)=C(O)[C@@H](N(C)C)[C@@H]3[C@@H](O)[C@@H]21` [Doxycycline, reference compound], the “% Confluence” value worked out at 98.7% (compound tested at 10 μM) and 91% (compound tested at 50 μM).
